Results as given in the NIST ThermoML archive (doi:10.1021/acs.jced.5b00251).

Assay: refractive index (other wavelength) (dimensionless); xn = mol fraction of the nth substance listed
Details: 101 kPa, Liquid, Standard Abbe refractometry

CC(C)Cc1ccccc1 [(2-methylpropyl)benzene] + CCCCCCCCCCCC
refractive index
Details	x1 = 0.1014	x1 = 0.2024	x1 = 0.3032	x1 = 0.4036	x1 = 0.5038	x1 = 0.6036	x1 = 0.7032	x1 = 0.8024	x1 = 0.9014
308.15 K, Wavelength=436.1 nm	1.43035	1.43663	1.44293	1.44977	1.45671	1.46416	1.47181	1.47955	1.48775
308.15 K, Wavelength=513.9 nm	1.42401	1.42966	1.43562	1.44199	1.44841	1.45531	1.46239	1.46958	1.47731
308.15 K, Wavelength=589.3 nm	1.42043	1.42581	1.43152	1.43762	1.44375	1.45034	1.45708	1.46398	1.47126
308.15 K, Wavelength=633.2 nm	1.41894	1.42433	1.42979	1.4358	1.44178	1.44827	1.45488	1.46165	1.46871
308.15 K, Wavelength=657.2 nm	1.41824	1.42395	1.42984	1.43554	1.44115	1.44715	1.45387	1.46065	1.46758
313.15 K, Wavelength=436.1 nm	1.42808	1.43404	1.44059	1.4473	1.45448	1.46172	1.46924	1.47706	1.48511
313.15 K, Wavelength=513.9 nm	1.42179	1.42725	1.43332	1.43955	1.44611	1.45293	1.4599	1.46712	1.47502
313.15 K, Wavelength=589.3 nm	1.41826	1.42345	1.42938	1.4352	1.44159	1.44797	1.45466	1.46154	1.46878
313.15 K, Wavelength=633.2 nm	1.41677	1.42191	1.42752	1.43336	1.43965	1.4459	1.45247	1.45924	1.46652
313.15 K, Wavelength=657.2 nm	1.41612	1.42149	1.42761	1.43304	1.43882	1.44496	1.45159	1.45817	1.46515
318.15 K, Wavelength=436.1 nm	1.42579	1.43204	1.43791	1.44498	1.4518	1.45921	1.46673	1.47452	1.48247
318.15 K, Wavelength=513.9 nm	1.41953	1.42512	1.43094	1.43729	1.44389	1.45049	1.45744	1.46465	1.47245
318.15 K, Wavelength=589.3 nm	1.41596	1.42122	1.42669	1.43297	1.43898	1.44556	1.45224	1.4591	1.46615
318.15 K, Wavelength=633.2 nm	1.41454	1.41993	1.425	1.43114	1.4371	1.44352	1.45008	1.45679	1.46372
318.15 K, Wavelength=657.2 nm	1.41386	1.41979	1.42574	1.43091	1.43665	1.44244	1.44935	1.45594	1.46262
